Results taken from patent publication US20240165112A1, “THERAPY FOR THE TREATMENT OF CANCER” (Bristol-Myers Squibb Company, priority 2022, published 2024).

Tests used:
[1] = test system: phospho-c-Jun in normal human lung fibroblasts (NHLF); assay: TGF-β-induced c-Jun phosphorylation (capillary western); format: cell-based; settings: Fibroblast, 10 ng/mL TGF-β for 2 hours, western blot, read-out: EC50 on phospho-c-Jun levels
Procedure: (§1) Normal human lung fibroblasts (NHLF, black circle) or lung cancer-associated fibroblasts (CAF, black square) were treated with 10 ng/mL TGF-β after 1 hour pre-incubation with a range of Compound 1 concentrations, and cells were lysed 2 hours later. Phospho-c-Jun levels were evaluated by western blot. Abbreviations: CAF, cancer-associated fibroblasts; NHLF, normal lung human fibroblasts; TGF-β, transforming growth factor beta.
(§2) Normal human lung fibroblasts (NHLF) and lung cancer-associated fibroblasts (CAF) were maintained in their respective vendor recommended media. For the purposes of comparing the two cell lines, NHLF and lung CAF were both adapted to DMEM+10% fetal bovine serum (FBS) and to RPMI+10% FBS prior to use in the activation assay. Cells were seeded (150,000 NHLF and lung CAF cells) in 12 well plates and allowed to adhere overnight at 37° C., 5% CO2. The next day, cells were pre-treated for […] at 37° C. with DMSO or Compound 1 at 30 μM, 7.5 μM, 1.875 μM, 0.469 μM, 0.117 μM, 0.029 μM, and 0.007 μM. […]
(§3) The levels of phospho-c-Jun in NHLF and non-small cell lung CAF in response to TGF-β in the presence of DMSO or varying concentrations of Compound 1 were summarized in FIG. 7. […] Phospho-c-Jun levels were determined by western blot analysis and were normalized to DMSO treated samples.

[2] = test system: phospho-c-Jun in lung cancer-associated fibroblasts (CAF); assay: as above; format: cell-based; settings: Homo sapiens, Fibroblast, 10 ng/mL TGF-β for 2 hours, western blot, read-out: EC50 on phospho-c-Jun levels
Procedure: as §1, §2, §3

[3] = Plasma concentration of Compound 1 at the 400 mg dose; format: in vivo; settings: 400 mg dose in human
[4] = test system: TNC, ACTA2, PAI-1 transcripts in normal human lung fibroblasts (NHLF); assay: TGF-β-induced gene transcription, fibroblast activation markers (RT-PCR); format: cell-based
Procedure: Normal human lung fibroblasts (NHLF, black bars) were treated with 10 ng/mL TGF-β after 1 hour pre-incubation with a range of Compound 1 concentrations, and cells were lysed 24 hours later. Indicated gene transcripts were assessed by RT-PCR relative to GAPDH. Data were normalized to expression after TGF-β treatment in the presence of only DMSO. Data are presented as mean of 3 biological replicates, and error bars indicate standard deviation. The graphs are representative of at least 2 independent experiments. *P<0.05; ** P<0.01, ***P<0.001; ****P<0.0001 by student's t-test. Abbreviations: ACTA2, smooth muscle actin; CAF, cancer associated fibroblasts; DMSO, dimethyl sulfoxide; GAPDH, glyceraldehyde-3-phosphate dehydrogenase; NHLF, normal lung human fibroblasts; PAI-1, plasminogen activator inhibitor 1; RNA, ribonucleic acid; RT-PCR, reverse transcription polymerase chain reaction; TGF-β, transforming growth factor beta; TNC, tenascin C.
Cells were seeded (75,000 NHLF and lung CAF cells) into 12 well plates with RPMI+10% FBS and allowed to adhere overnight at 37° C., 5% CO2. After one day of serum starvation, cells were pre-treated for 1 hour with DMSO or Compound 1 at 30 μM, 10 μM, 3 μM, 1 μM, or 0.3 μM and then stimulated with 10 ng/mL TGF-β. The 24-hour Compound 1 treated samples were harvested for ribonucleic acid (RNA) extraction.
Cells were directly lysed in Qiagen™ Buffer RLT Plus with 1% 2-Mercaptoethanol added. Total RNA from tumor samples and cell lines was isolated using Qiagen™ AllPrep® DNA/RNA 96 Kit according to manufacturer's protocol. Isolated RNA was analyzed with NanoDrop™ ONE Spectrophotometer for concentration. The RNA integrity was also analyzed on Agilent TapeStation 4200.
Complimentary deoxyribonucleic acid (cDNA) was prepared by using Invitrogen™ SuperScript™ III First-Strand Synthesis SuperMix for qRT-PCR. Up to 1 μg of RNA was prepared according to manufacturer's protocol, using Applied Biosystems™ Veriti™ 96-well thermal cycler. The reverse transcription (RT) program used for cDNA synthesis: • 1. 25° C., 10 minutes • 2. 50° C., 30 minutes • 3. 85° C., 5 minutes • 4. Add E. Coli RNase H, 37° C., 20 minutes • 5. Hold at 4° C. Quantitative Reverse Transcription Polymerase Chain Reaction (qRT-PCR).
The cDNA was diluted 1:3 fold in nuclease-free water for quantitative polymerase chain reaction (qPCR) setup. Human and mouse TaqMan™ assays for targeted genes were ordered through Applied Biosystems™. TaqMan™ assay selection was based on manufacturer's recommendation. The qRT-PCR was set up using Applied Biosystems™ TaqMan™ Fast Advanced Master Mix according to manufacturer's protocol. The qRT-PCR was run on QuantStudio™ 12 Flex with fast run mode: • 1. 95° C., 20 seconds • 2. 95° C., 1 second • 3. 60° C., 20 seconds • 4. Repeat steps 2-3, 39 times
The qPCR data was analyzed, and all cycle threshold (Ct) values were normalized to glyceraldehyde-3-phosphate dehydrogenase (GAPDH) (ΔCt). Analysis was plotted and presented using GraphPad Prism (GraphPad, Version 8.4.1, San Diego, CA).
The levels of phospho-c-Jun in NHLF and non-small cell lung CAF in response to TGF-β in the presence of DMSO or varying concentrations of Compound 1 were summarized in FIG. 7. Cells were treated with DMSO or Compound 1 for 1 hour prior to treatment with 10 ng/mL TGF-β for an additional 2 hours. Phospho-c-Jun levels were determined by western blot analysis and were normalized to DMSO treated samples. […] The relative expression of fibroblast activation markers in NHLF and lung CAF in response to TGF-β in the presence of DMSO or varying concentrations of Compound 1 were summarized in FIGS. 8A-8C and FIGS. 9A-9C. Cells were treated with DMSO or Compound 1 for 2 hours prior to treatment with 10 ng/mL TGF-β. The RNA expression was assessed 24 hours after TGF-β treatment.

[5] = NHLF stimulated with TGFβ, 10 μM Compound 1
[6] = NHLF, 30 μM Compound 1, 10 ng/mL TGF-β, 24 hours

For `C[C@@H]1CC[C@@H](Nc2nc(NC(C)(C)C)ncc2C(N)=O)C[C@H]1O` [Compound 1, 2-(tert-butylamino)-4-((1R,3R,4R)-3-hydroxy-4-methylcyclohexylamino)-pyrimidine-5-carboxamide], the EC50 [1] was 350 nM, the EC50 [2] was 330 nM and the “plasma concentration at Cavg” value [3] was 4 µM. For the same compound, the Cmax ([3]; plasma) was 14 µM, the “ACTA2 reduced relative to DMSO” value [4, 5] was 4.1% and the “TNC reduced relative to DMSO” value [4, 5] was 66%. For the same compound, the “TNC induction, reduction from peak activation to baseline” value ([4]; NHLF, 3 μM Compound 1, 10 ng/mL TGF-β, 24 hours) was 48%, the “PAI-1 induction, reduction from peak activation to baseline” value ([4]; NHLF, 10 μM Compound 1, 10 ng/mL TGF-β, 24 hours) was 20% and the “ACTA2 induction, reduction from peak activation to baseline” value [4, 6] was 95%. The “PAI-1 induction, reduction from peak activation relative to baseline” value [4, 6] was 57% and the TNC expression [4, 6] was “lower than samples that never received TGF-β”.
